Converted amounts (≈) assume the structure as drawn.
What was measured:
[1] = cited from earlier work; for water solubility: background statement
[2] = system: Taxol resistant cell line; assay: cytopathic effects on Taxol resistant cell line (FIG. 10, 11); assay type: cell-based; settings: 5 microgram/ml Taxol, FIG. 11
From the text: FIG. 10A. A taxol resistant cell line without treatment (in vitro) showing aggressive growth. FIG. 10B. The same cell line treated with the hybrid taxol, showing cytopathic effects.

| Compound | water solubility [1] | solubility in DMSO ([1]; DMSO) [mg/mL] | solubility in water ([1]; estimated) [µM] | solubility in ethanol ([1]; ethanol, with warming) [mg/mL] | cytopathic effects at very low concentration [2] |
| --- | --- | --- | --- | --- | --- |
| CC1=C(/C=C/C(C)=C/C=C/C(C)=C/C(=O)O)C(C)(C)CCC1 [All-trans-retinoic acid] | not water-soluble | – | – | – | – |
| C=C(c1ccc(C(=O)O)cc1)c1cc2c(cc1C)C(C)(C)CCC2(C)C [Bexarotene] | poorly soluble in water | 65 (≈ 187 mM) | 10 to 50 | 10 (≈ 28.7 mM) | – |
| CC(=O)O[C@H]1C(=O)[C@@]2(C)[C@H]([C@H](OC(=O)c3ccccc3)[C@]3(O)C[C@H](OC(=O)[C@H](O)[C@@H](NC(=O)c4ccccc4)c4ccccc4)C(C)=C1C3(C)C)[C@]1(OC(C)=O)CO[C@@H]1C[C@@H]2O [Taxol, paclitaxel] | very poorly water-soluble | – | – | – | cytopathic effects are observed |
